# Reference: patent publication US9550796B2, “Pyrrolopyrrolone derivatives and their use as BET inhibitors” (NOVARTIS AG, priority 2013, dated 2017)
# Experiments:
# BRD4 = BRD4 (Homo sapiens (Human), UniProt O60885); assay: TR-FRET in-vitro binding assay for BRD4; conditions: 45 nM His-Brd4(44-477), acetyl-histone H4 (AcK 5, 8, 12, 16) peptide
# How it was run: (§1)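 Binding is detected by TR-FRET following incubation for 35 minutes at 30° C.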
# BRD2 = BRD2 (Homo sapiens (Human), UniProt P25440); assay: TR-FRET in-vitro binding assay for BRD2; conditions: 45 nM His-Brd2(60-472), acetyl-histone H4 (AcK 5, 8, 12, 16) peptide
# Method: TR-FRET In-Vitro Binding Assays for BRD2, BRD3, and BRD4: All assays were performed in 384-well microtiter plates. […] Liquid handling and incubation steps were done on an Innovadyne Nanodrop Express equipped with a robotic arm (Thermo CatX, Perkin Elmer/Caliper Twister II) and an incubator (Liconic STX40, Thermo Cytomat 2C450). The assay plates were prepared by addition of 50 nl per well of compound solution in 90% DMSO HummingBird nanodispenser (Zinsser Analytic). […] Reactions were incubated at 30° C. for 35 minutes. […] After 35 minutes incubation at 30° C., plates were measured in a Perkin Elmer EnVision multilabel reader. […] The stock solutions were stored at […] if not used immediately. For the test procedure the vials were defrosted and identified by a scanner whereby a working sheet was generated that guided the subsequent working steps. Compound dilutions were made in 96 well plates. This format enabled the assay of maximally […] at 8 concentrations (single points) including 4 reference compounds, if desired (known BET inhibitors from the prior art, for this and other assays of the type disclosed herein). The dilution protocol included the production of “pre-dilution plates”, “master plates” and “assay plates”. Polypropylene 96-well plates were used as pre-dilution plates. […] All dilution steps were done on a HamiltonSTAR robot. […] Identical “assay plates” were then prepared by pipetting 50 nL each of compound dilutions of the “master plates” into 384-well “assay plates” by means of a HummingBird 384-channel dispenser. These plates were used directly for the assay which was performed in a total volume of 13.55 μL.
# BRD3 = BRD3 (Homo sapiens (Human), UniProt Q15059); assay: TR-FRET in-vitro binding assay for BRD3; conditions: 45 nM His-Brd3(20-477), acetyl-histone H4 (AcK 5, 8, 12, 16) peptide
# How it was run: as §1
# CREBBP = CREBBP (Homo sapiens (Human), UniProt Q92793); assay: AlphaScreen in-vitro binding assay for CREBBP; conditions: 324 nM His-CREBBP (1081-1197), acetyl-histone H4 (AcK 5, 8, 12) peptide
# How it was run: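 IC50 values were derived by non-linear regression of percent inhibition across 8 compound concentrations. Protein was His-tagged CREBBP bromodomain (1081-1197), peptide acetyl-histone H4 (AcK 5, 8, 12), in HEPES pH 7.5 buffer. Read-out was AlphaScreen with Ni-chelate acceptor and streptavidin donor beads, 35 min at 30° C then 60 min at RT.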
# MV-4-11 = assay: Cell growth inhibition assay (CellTiter-Glo), MV-4-11; format: cell-based, human; conditions: MV-4-11 cells, 4 days; for GI50: Homo sapiens, MV4-11, 96 h, half-maximal growth inhibition; for MV-4-11 TGI: total growth inhibition
# How it was run: (§2)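 4-day CTG ATP readout, 37 °C/5% CO2; top conc 10 μM, 3-fold dilutions; 0.1% DMSO vehicle. Luminescence background-subtracted, normalised to day 0 plate; vehicle = 100%, medium = −100%. IC50/TGI by 4-parameter fit.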
# THP-1 = assay: Cell growth inhibition assay (CellTiter-Glo), THP-1; format: cell-based, human; conditions: THP-1 cells, 4 days; for GI50: Homo sapiens, 96 h, half-maximal growth inhibition; for THP-1 TGI: total growth inhibition
# How it was run: as §2
# K-562 = assay: Cell growth inhibition assay (CellTiter-Glo), K-562; format: cell-based, human; conditions: K-562 cells, 4 days; for GI50: Homo sapiens, K562, 96 h, half-maximal growth inhibition; for K-562 TGI: total growth inhibition
# How it was run: as §2
# Chain of BRD2 (P25440 60-472): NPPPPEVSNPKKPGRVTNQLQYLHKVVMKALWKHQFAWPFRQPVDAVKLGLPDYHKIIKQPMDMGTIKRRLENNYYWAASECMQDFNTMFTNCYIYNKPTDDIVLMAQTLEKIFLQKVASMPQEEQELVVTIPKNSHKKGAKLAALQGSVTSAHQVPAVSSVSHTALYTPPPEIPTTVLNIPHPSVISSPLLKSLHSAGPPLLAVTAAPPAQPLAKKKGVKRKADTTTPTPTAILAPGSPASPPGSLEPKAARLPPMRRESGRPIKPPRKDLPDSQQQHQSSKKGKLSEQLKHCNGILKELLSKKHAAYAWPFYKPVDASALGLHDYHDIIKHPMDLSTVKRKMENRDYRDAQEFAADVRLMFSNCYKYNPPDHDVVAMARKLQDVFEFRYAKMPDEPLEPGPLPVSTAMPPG
# Chain of BRD3 (Q15059 20-477): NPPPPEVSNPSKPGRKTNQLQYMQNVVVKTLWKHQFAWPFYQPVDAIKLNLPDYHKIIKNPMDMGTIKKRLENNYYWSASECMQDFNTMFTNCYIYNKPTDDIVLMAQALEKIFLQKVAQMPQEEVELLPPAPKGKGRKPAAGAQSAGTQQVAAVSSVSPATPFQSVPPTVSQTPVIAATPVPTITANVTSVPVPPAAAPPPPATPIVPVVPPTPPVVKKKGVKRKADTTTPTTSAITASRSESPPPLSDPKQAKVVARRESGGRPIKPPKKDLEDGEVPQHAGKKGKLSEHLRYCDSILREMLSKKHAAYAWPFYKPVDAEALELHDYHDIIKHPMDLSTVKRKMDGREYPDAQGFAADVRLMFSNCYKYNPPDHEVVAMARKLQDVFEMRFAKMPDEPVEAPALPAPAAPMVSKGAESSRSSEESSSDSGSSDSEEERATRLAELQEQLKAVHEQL
# Chain of CREBBP (Q92793 1081-1197): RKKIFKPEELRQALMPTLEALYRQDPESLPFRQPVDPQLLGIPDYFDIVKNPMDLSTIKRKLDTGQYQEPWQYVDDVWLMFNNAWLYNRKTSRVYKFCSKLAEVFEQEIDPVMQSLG
Compound,IC50 (BRD4) [nM],IC50 (BRD2) [nM],IC50 (BRD3) [nM],IC50 (CREBBP) [nM],GI50 (MV-4-11) [nM],GI50 (THP-1) [nM],GI50 (K-562) [nM],MV-4-11 TGI (MV-4-11) [nM],THP-1 TGI (THP-1) [nM],K-562 TGI (K-562) [nM]
"CNC(=O)n1cc(C)c2c1C(c1ccc(Cl)cc1)N(c1cc(C)c3nnc(C)n3c1)C2=O (stereo not drawn) [Example 9, 6-(4-chlorophenyl)-5-(3,8-dimethyl-[1,2,4]triazolo[4,3-a]pyridin-6-yl)-N,3-dimethyl-4-oxo-5,6-dihydropyrrolo[3,4-b]pyrrole-1(4H)-carboxamide]",24,28,15,6000,13,17.1,78.7,26.75,43.3,>10000
"Cc1cc(N2C(=O)c3c(C4CC4)cn(C)c3C2c2ccc(Cl)cc2)cn(C)c1=O (stereo not drawn) [Example 37, 6-(4-chlorophenyl)-3-cyclopropyl-5-(1,5-dimethyl-6-oxo-1,6-dihydropyridin-3-yl)-1-methyl-5,6-dihydropyrrolo[3,4-b]pyrrol-4(1H)-one]",37,38,32,1900,21.3,44.9,180,38.55,98.15,>10000
"Cc1cc(N2C(=O)c3c(C4CC4)cn(C4COC4)c3C2c2ccc(Cl)cc2)nc2c1nnn2C (stereo not drawn) [Example 104, 6-(4-chlorophenyl)-3-cyclopropyl-5-(3,7-dimethyl-3H-[1,2,3]triazolo[4,5-b]pyridin-5-yl)-1-(oxetan-3-yl)-5,6-dihydropyrrolo[3,4-b]pyrrol-4(1H)-one]",21,35,21,14800,2.98,6.31,36.5,11,18.4,>10000
"Cn1c(-c2cccc(=O)n2C)cc2c1C(c1ccc(Cl)cc1)N(c1cc(Cl)c(=O)n(C)c1)C2=O (stereo not drawn) [Example 44, 5-(5-chloro-1-methyl-6-oxo-1,6-dihydropyridin-3-yl)-6-(4-chlorophenyl)-1-methyl-2-(1-methyl-6-oxo-1,6-dihydropyridin-2-yl)-5,6-dihydropyrrolo[3,4-b]pyrrol-4(1H)-one]",66,54,41,310,264,1420,2590,391,2700,>10000
"Cc1cc(N2C(=O)c3c(C(N)=O)cn(C)c3C2c2ccc(Cl)cc2)cn2c(C)nnc12 (stereo not drawn) [Example 101, 6-(4-chlorophenyl)-5-(3,8-dimethyl-[1,2,4]triazolo[4,3-a]pyridin-6-yl)-1-methyl-4-oxo-1,4,5,6-tetrahydropyrrolo[3,4-b]pyrrole-3-carboxamide]",41,54,42,30600,57.4,150,1300,160.5,450.5,>10000
"CC(=O)N1CC(n2cc(C3CC3)c3c2C(c2ccc(Cl)cc2)N(c2cc(C)c4nnn(C)c4n2)C3=O)C1 (stereo not drawn) [Example 105, 1-(1-acetylazetidin-3-yl)-6-(4-chlorophenyl)-3-cyclopropyl-5-(3,7-dimethyl-3H-[1,2,3]triazolo[4,5-b]pyridin-5-yl)-5,6-dihydropyrrolo[3,4-b]pyrrol-4(1H)-one]",< 11,13,12,14100,0.341,0.674,4.76,2.43,2.38,>10000

# Second part, led by results:
IC50 (BRD4) [nM],IC50 (BRD2) [nM],IC50 (BRD3) [nM],IC50 (CREBBP) [nM],GI50 (MV-4-11) [nM],GI50 (THP-1) [nM],GI50 (K-562) [nM],Compound,MV-4-11 TGI (MV-4-11) [nM],THP-1 TGI (THP-1) [nM],K-562 TGI (K-562) [nM]
12,23,16,> 37000,7.66,15.1,62.1,"COCn1cc(C)c2c1C(c1ccc(Cl)cc1)N(c1cc(C)c3nnn(C)c3n1)C2=O (stereo not drawn) [Example 2, 6-(4-chlorophenyl)-5-(3,7-dimethyl-3H-[1,2,3]triazolo[4,5-b]pyridin-5-yl)-1-(methoxymethyl)-3-methyl-5,6-dihydropyrrolo[3,4-b]pyrrol-4(1H)-one]",19.7,34.7,>10000
17,32,16,7600,50.2,196,2060,"CC(=O)N1CC(n2cc(C)c3c2C(c2ccc(Cl)cc2)N(c2cc(C)c4nnc(C)n4c2)C3=O)C1 (stereo not drawn) [Example 7, 1-(1-acetylazetidin-3-yl)-6-(4-chlorophenyl)-5-(3,8-dimethyl-[1,2,4]triazolo[4,3-a]pyridin-6-yl)-3-methyl-5,6-dihydropyrrolo[3,4-b]pyrrol-4(1H)-one]",135.8,449.5,>10000
54,80,52,23900,74.8,219,1050,"COCC(=O)N1CC(n2cc(C)c3c2C(c2ccc(Cl)cc2)N(c2cc(C)c4nnc(C)n4c2)C3=O)C1 (stereo not drawn) [Example 12, 6-(4-chlorophenyl)-5-(3,8-dimethyl-[1,2,4]triazolo[4,3-a]pyridin-6-yl)-1-(1-(2-methoxyacetyl)azetidin-3-yl)-3-methyl-5,6-dihydropyrrolo[3,4-b]pyrrol-4(1H)-one]",149,618.5,>10000
434,660,222,26800,295,396,1790,"Cc1cc(N2C(=O)c3ccn(C)c3C2c2ccccc2)cn(C)c1=O (stereo not drawn) [Example 79, 5-(1,5-dimethyl-6-oxo-1,6-dihydropyridin-3-yl)-1-methyl-6-phenyl-5,6-dihydropyrrolo[3,4-b]pyrrol-4(1H)-one]",496,904,>10000
33,55,34,14500,19.4,29.8,102,"Cc1cn(C(=O)N(C)C)c2c1C(=O)N(c1cc(C)c3nnc(C)n3c1)C2c1ccc(Cl)cc1 (stereo not drawn) [Example 10, 6-(4-chlorophenyl)-5-(3,8-dimethyl-[1,2,4]triazolo[4,3-a]pyridin-6-yl)-N,N,3-trimethyl-4-oxo-5,6-dihydropyrrolo[3,4-b]pyrrole-1(4H)-carboxamide]",36.25,69.85,>10000
120,100,85,180,94.4,426,680,"Cc1cc(N2C(=O)c3cc(-c4cccc(=O)n4C)n(C4CC4)c3C2c2ccc(Cl)cc2)cn(C)c1=O (stereo not drawn) [Example 63, 6-(4-chlorophenyl)-1-cyclopropyl-5-(1,5-dimethyl-6-oxo-1,6-dihydropyridin-3-yl)-2-(1-methyl-6-oxo-1,6-dihydropyridin-2-yl)-5,6-dihydropyrrolo[3,4-b]pyrrol-4(1H)-one]",160,788,>10000
